Measurements published in patent US8987302B2, “Treatment of hepatitis C virus related diseases using hydroxychloroquine or a combination of hydroxychloroquine and an anti-viral agent” (Panmed Ltd., priority 2010, dated 2015).

Columns and labels:
[1] = test system: HCV genotype 1b replicon; assay: HCV RNA replication in Huh7 replicon cells (RT-PCR), single drugs and combinations; assay type: cell-based, hepatitis C virus; details: alone, 72 hours
[2] = test system: NiV; details: hamster, in vivo; cited from earlier work
[3] = test system: HeV; details: hamster, in vivo; cited from earlier work
[4] = test system: JFH1/CsN6A4 infected Huh7 cells; assay: Microarray gene expression in JFH1/CsN6A4 infected Huh7 cells; details: for Number of genes modulated by both HCQ and CQ, Down-regulated / Number of genes modulated by both HCQ and CQ, Up-regulated: 40 μM; for Number of genes modulated by both HCQ and CQ, Down-regulated: FC≦0.5; for Number of genes modulated by both HCQ and CQ, Up-regulated: FC≧2; for number of the 118 HCV modulated genes down-regulated (FC≦0.5) by both compounds / number of the 118 HCV modulated genes up-regulated (FC≧2) by both compounds / expression of genes involved in the IFN signaling: 48 hours treatment; for expression of genes involved in the IFN signaling: IFN 100IU
[5] = test system: Huh7 harboring replicon cells; assay: Microarray gene expression in Huh7 harboring replicon cells; assay type: cell-based, Human; details: 10 μM
[6] = test system: Huh 5-2 cells; details: 6.6 μM; cited from earlier work
[7] = test system: HCV replicon-Huh-7/neo cells; assay: Replication levels of HCV replicon by NPTII quantification; details: 0.5, 1 or 10 μM, 72 hours
[8] = test system: replicon cells; assay: Cytotoxicity, MTS assay of replicon cells; details: tested doses, 72 hours
[9] = after either 12 hours or 48 hours of treatment
[10] = cut-off at 12 hours and 24 hours
[11] = 48 h of antiviral treatment, vs untreated infected cells

## CCN(CC)CCCC(C)Nc1ccnc2cc(Cl)ccc12 (stereo not drawn) [CQ, chloroquine]
[1]
  HCV RNA replication: inhibited HCV RNA replication
[2]
  protection of hamsters: did not protect hamsters
[3]
  protection of hamsters: did not protect hamsters
[4]; 12 h
  Number of genes modulated by both HCQ and CQ, Down-regulated: 9
  Number of genes modulated by both HCQ and CQ, Up-regulated: 38
[4]; 48 h
  Number of genes modulated by both HCQ and CQ, Down-regulated: 262
  Number of genes modulated by both HCQ and CQ, Up-regulated: 24
  Number of genes Induced by JFH1 infection and Down-regulated by treatment: 104
  Number of genes Induced by JFH1 infection and Up-regulated by treatment: 1
  Number of genes Repressed by JFH1 infection and Down-regulated by treatment: 2
  Number of genes Repressed by JFH1 infection and Up-regulated by treatment: 11
[4]
  number of the 118 HCV modulated genes down-regulated (FC≦0.5) by both compounds: 106
  number of the 118 HCV modulated genes up-regulated (FC≧2) by both compounds: 12
[4]; [9]
  genes significantly up-regulated in common with HCQ and CQ: 62 genes

## CCN(CCO)CCCC(C)Nc1ccnc2cc(Cl)ccc12 (stereo not drawn) [HCQ, 2-[[4-[(7-chloro-4-quinolinyl)amino]pentyl]ethylamino]ethanol, reference compound]
[1]
  HCV RNA replication: inhibited HCV RNA replication in a dose dependent manner
[5]; 6 hours
  Number of genes transcriptionally modulated, Down-regulated: 5
[5]; 12 hours
  Number of genes transcriptionally modulated, Down-regulated: 30
  Number of genes transcriptionally modulated, Up-regulated: 7
[5]; 24 hours
  Number of genes transcriptionally modulated, Down-regulated: 63
  Number of genes transcriptionally modulated, Up-regulated: 23
[5]; [10]
  number of significantly repressed genes (FC≦0.5) among the 23 modulated genes: 20
  number of up-regulated genes (FC≧2) among the 23 modulated genes: 3
[6]
  cell growth with respect to the untreated control: more than 81%
[7]
  replication level of HCV replicon (% NPTII), number of HCV infected cells: dose-dependent decrease
[4]; 12 h
  Number of genes modulated by both HCQ and CQ, Down-regulated: 9
  Number of genes modulated by both HCQ and CQ, Up-regulated: 38
[4]; 48 h
  Number of genes modulated by both HCQ and CQ, Down-regulated: 262
  Number of genes modulated by both HCQ and CQ, Up-regulated: 24
  Number of genes Induced by JFH1 infection and Down-regulated by treatment: 104
  Number of genes Induced by JFH1 infection and Up-regulated by treatment: 1
  Number of genes Repressed by JFH1 infection and Down-regulated by treatment: 2
  Number of genes Repressed by JFH1 infection and Up-regulated by treatment: 11
[4]
  number of the 118 HCV modulated genes down-regulated (FC≦0.5) by both compounds: 106
  number of the 118 HCV modulated genes up-regulated (FC≧2) by both compounds: 12
  expression of genes involved in the IFN signaling: None of the genes regulated by IFN were found to be modulated
[4]; [9]
  genes significantly down-modulated in common with HCQ and CQ: 271 genes
  genes significantly up-regulated in common with HCQ and CQ: 62 genes

## NC(=O)c1ncn([C@@H]2O[C@H](CO)[C@@H](O)[C@H]2O)n1 [Ribavirin, ribavirin]
[2]
  delay of death from viral disease: approximately 5 days
[3]
  effect on death from viral disease: no significant effect

## IFNα
[1]
  HCV RNA replication: inhibited HCV RNA replication in a dose dependent manner
[8]
  cell viability: not affected
[4]; [11]
  Fold Change, AMBRA1: 0.4
  Fold Change, ATF2: 0.4
  Fold Change, ATF3: 0.2
  Fold Change, ATF4: 0.5
  Fold Change, ATF7IP: 0.4
  Fold Change, ATG2A: 0.3
  Fold Change, ATG4B: 1.3
  Fold Change, ATG7: 0.9
  Fold Change, ATG12: 0.8
  Fold Change, BBC3: 0.1
  Fold Change, BCL3: 0.4
  Fold Change, BECN1: 1.4
  Fold Change, BMF: 0.2
  Fold Change, CXCL5: 1.3
  Fold Change, CYP1A1: 0.4
  Fold Change, CYR61: 0.2
  Fold Change, DAPK3: 0.3
  Fold Change, DDIT3: 0.1
  Fold Change, DDIT4: 0.3
  Fold Change, DUSP1: 0.1
  Fold Change, DUSP4: 0.2
  Fold Change, DUSP8: 0.1
  Fold Change, FOXO3: 0.5
  Fold Change, GABARAPL1: 0.4
  Fold Change, GADD45A: 0.2
  Fold Change, GADD45B: 0.1
  Fold Change, GADD45G: 0.3
  Fold Change, HRK: 0.7
  Fold Change, ICAM1: 2.0
  Fold Change, IKBKAP: 1.3
  Fold Change, JUN: 0.2
  Fold Change, MAP1LC3B: 0.4
  Fold Change, MYC: 0.3
  Fold Change, NFKB1: 0.8
  Fold Change, NFKBIA: 0.3
  Fold Change, NFKBIB: 0.4
  Fold Change, NFKBIE: 0.3
  Fold Change, NFKBIL2: 1.5
  Fold Change, NKIRAS1: 0.4
  Fold Change, NKIRAS2: 1.0
  Fold Change, NKRF: 1.0
  Fold Change, PDRG1: 0.6
  Fold Change, PIK3C3: 0.5
  Fold Change, PRKAA1: 0.3
  Fold Change, RELB: 0.4
  Fold Change, SESN2: 0.2
  Fold Change, SIRT1: 0.5
  Fold Change, SQSTM1: 0.5
  Fold Change, STK11: 0.9
  Fold Change, TANK: 1.2
  Fold Change, TNFRSF10B: 0.6
  Fold Change, TRAF2: 0.7
  Fold Change, TRAF4: 0.7
  Fold Change, TSC1: 0.6
  Fold Change, TSC2: 0.9
  Fold Change, UBD: 0.8
  Fold Change, ULK1: 0.3
[4]
  expression of genes involved in the IFN signaling: significantly increased
